Laboratory results reported in US20260092086A1, “ANTIMICROBIAL LASSO PEPTIDES” (priority 2022, published 2026).
≈ marks a conversion by molar mass, not a printed value. Entries after “also recorded” stand apart in the source; their conditions may differ. Read-outs that look alike come from different tables or passages of the source. Where a SMILES comes first, the peptide text is derived from it.

How the values were obtained:
[1] = system: clinical isolates of Enterobacter; experiment: Spot-on-lawn assay, panel of clinical isolates (Table 7); assay type: cell-based
Procedure: The type strain of Enterobacter cloacae (ATCC 13047) tested as discussed above was isolated from human cerebrospinal fluid in 1890^66 before the era of antibiotics. The activity of cloacaenodin was also tested against more recent clinical isolates. A panel of two (2) clinical isolates of Enterobacter using the spot-on-lawn assay was tested (Table 7).
Cloacaenodin was evaluated against several common laboratory strains as well as commercially acquired strains using a spot-on-lawn assay.^45 Strains were streaked out onto LB agar plates and incubated overnight at their recommended temperatures. A single colony was then used to inoculate an overnight culture in 5 mL of LB broth. After shaking at 250 rpm at the recommended temperature for each strain, 50 μL of the overnight culture was used to inoculate 5 mL of LB broth (volume ratio 1:100). These cultures were grown for a few hours until they reached the exponential phase (OD600˜0.4-0.6) before being added to 10 mL of soft M63 agar at a final cell density of 10^7 CFUs/mL, or 10^8 CFUs total in 10 mL. […] The plates were incubated overnight at the strains' recommended temperatures and analyzed the next morning for activity. […]

[2] = system: Enterobacter cloacae ATCC 13047; assay type: cell-based
Procedure: (§1) For liquid inhibition assays, 5 mL LB broth was inoculated with 40-50 μL of an overnight culture of E. cloacae or E. amnigenus. […] The plate was shaken at 30° C. at 250 rpm for E. cloacae, and 37° C. at 250 rpm for E. amnigenus. The OD600 was measured at 8-hour and 16-hour increments. The MIC is defined as the lowest concentration of cloacaenodin for which growth (as assessed by the OD600) was inhibited.

Enterobacter amnigenus = assay type: cell-based
Procedure: as §1

α-chymotrypsin = molecular target: T1, α-chymotrypsin (Bos taurus, UniProt P00766, DEL14-15/DEL147-148); experiment: Protease digestion, chymotrypsin; assay type: in vitro ADME, bovine; settings: 50 μM peptide, 25° C., about 1 hour, LC-MS
T1 construct: purchased Sigma-Aldrich; host or cells: bovine pancreas
Procedure: α-chymotrypsin from bovine pancreas (Sigma-Aldrich) was first resuspended in 1 mM HCl, 2 mM CaCl2). The enzyme was added to 50 μM peptide samples at a final enzyme concentration of about 0.04 mg/mL in a buffer of 100 mM tris(hydroxymethyl)aminomethane (Tris), 10 mM CaCl2, pH 8. The reactions were then allowed to incubate at 25° C. for about 1 hour before quenching with 1% formic acid, and an aliquot was injected onto LC-MS for analysis.

[3] = system: Escherichia coli XL-1 Blue; experiment: Intracellular toxicity: IPTG-induced expression from plasmid lacking cloD; assay type: cell-based; settings: IPTG induction
Procedure: After characterizing the structure and proteolytic resistance of cloacaenodin, cloacaenodin's inhibition of bacterial growth was tested. As a preliminary test of antimicrobial activity, a version of the expression plasmid from which the cloD gene was removed was cloned, so that the lasso peptide could not be exported by the Escherichia coli upon isopropyl β-D-1-thiogalactopyranoside (IPTG)-induced expression.
Cloacaenodin variants were constructed using site-directed mutagenesis. Mutant precursor genes were amplified from the wild-type precursor in pAK2 using mutagenic primers. Following PCR amplification of the mutated precursor gene, the purified PCR product was digested and ligated into pAK2 with the EcoRI and HindIII restriction sites. For the pMP3 plasmid for deletion of the cloD gene, the D gene was first disrupted by digestion of pAK2 with BamHI and NcoI, which removed the entire cloD gene and the C-terminal portion of the cloC gene. The digested plasmid was then ligated with an insert that restored the C-terminal portion of the cloC gene. All mutants were sequence confirmed by Genewiz (now Azenta) before use.

B. subtilis 168 = experiment: Spot-on-lawn assay in M63 agar; assay type: cell-based, Bacillus subtilis; settings: purified cloacaenodin in water
Procedure: (§2) Cloacaenodin was evaluated against several common laboratory strains as well as commercially acquired strains using a spot-on-lawn assay.^45 Strains were streaked out onto LB agar plates and incubated overnight at their recommended temperatures. A single colony was then used to inoculate an overnight culture in 5 mL of LB broth. After shaking at 250 rpm at the recommended temperature for each strain, 50 μL of the overnight culture was used to inoculate 5 mL of LB broth (volume ratio 1:100). These cultures were grown for a few hours until they reached the exponential phase (OD600˜0.4-0.6) before being added to 10 mL of soft M63 agar at a final cell density of 10^7 CFUs/mL, or 10^8 CFUs total in 10 mL. The M63 soft agar was composed of 2 g/L of (NH4)2SO4 (EMD MilliporeSigma), 13.6 g/L of KH2PO4 (Fisher), 40 mg/L of each of the 20 common amino acids, 0.2% glucose (Sigma), 0.00005% w/v thiamine hydrochloride (Sigma), and 0.65% w/v bacteriological-grade agar (Apex Bioresearch). […] Upon solidification, 10 μL of purified cloacaenodin in water at two-fold dilutions were then spotted onto the agar and allowed to dry. The plates were incubated overnight at the strains' recommended temperatures and analyzed the next morning for activity. The MIC is defined as the last dilution where a spot was visible.

[4] = system: Enterobacter cloacae ATCC 13047; assay type: cell-based; remark: listed apart in the source
Procedure: as §2

[5] = system: Enterobacter amnigenus ATCC 33072; assay type: cell-based
Procedure: as §2

[6] = system: Enterobacter asburiae DSM 17506; assay type: cell-based
Procedure: as §2

[7] = system: Enterobacter mori DSM 26271; assay type: cell-based
Procedure: as §2

Enterobacter cloacae = experiment: Microscopy of cells treated with sub-MIC cloacaenodin; assay type: cell-based; settings: sub-MIC cloacaenodin (230 nM), 16 hours in M63 media
Procedure: After a 96-well plate of E. cloacae grew for 16 hours at 30° C. with varying concentrations of cloacaenodin in M63 media, samples were imaged using a Zeiss Observer Z1 automated inverted microscope with a cage incubator kept at 37° C. The microscope was used with a 100× Zeiss chroma objective with oil immersion and 35 ms exposure transmitted light and controlled using SlideBook software. Images were viewed using the software ImageJ.

[8] = spot-on-lawn, M63 agar, purified cloacaenodin in water

CC[C@H](C)[C@@H]1NC(=O)[C@H](CCCNC(=N)N)NC(=O)[C@H](CC(=O)O)NC(=O)[C@H](C(C)C)NC(=O)[C@H](CO)NC(=O)[C@H](Cc2c[nH]cn2)NC(=O)CNC(=O)CC[C@@H](C(=O)N[C@@H](Cc2ccc(O)cc2)C(=O)N[C@@H](Cc2ccccc2)C(=O)NCC(=O)N2CCC[C@H]2C(=O)N2CCC[C@H]2C(=O)NCC(=O)N[C@@H](CC(C)C)C(=O)N2CCC[C@H]2C(=O)NCC(=O)N2CCC[C@H]2C(=O)N[C@H](C(=O)N[C@@H](CC(C)C)C(=O)N[C@@H](Cc2ccccc2)C(=O)N[C@@H](Cc2ccc(O)cc2)C(=O)N[C@@H](CO)C(=O)O)C(C)C)NC(=O)[C@@H]2CCCN2C1=O [cloacaenodin] (HELM PEPTIDE1{G.H.S.V.D.R.I.P.E.Y.F.G.P.P.G.L.P.G.P.V.L.F.Y.S}$PEPTIDE1,PEPTIDE1,1:R1-9:R3$$$V2.0; C-terminus assumed)
minimal inhibitory concentration (MIC) ([1]; six of the clinical isolates, three classified as carbapenem resistant): low micromolar
antimicrobial activity ([1]; the other clinical isolates of Table 7): either weak or no activity
MIC in M63 media ([2]; ATCC 13047): 0.94 µM (≈ 2.43 µg/mL)
MIC in M63 media ([2]; liquid, Enterobacter cloacae ATCC 13047): 0.94 µM (liquid) (≈ 2.43 µg/mL)
MIC, broth microdilution assay in M63 media (Enterobacter amnigenus): 0.23 µM (≈ 0.594 µg/mL)
proteolysis by chymotrypsin (α-chymotrypsin; listed as Threaded cloacaenodin): resistant to chymotrypsin digestion
proteolysis by chymotrypsin (α-chymotrypsin; listed as threaded cloacaenodin): remained resistant to proteolysis
intracellular toxicity (growth of E. coli on IPTG without CloD) [3]: colonies did not appear; also recorded: can no longer grow
antimicrobial activity (zones of inhibition) (B. subtilis 168): no observed activity
MIC in M63 media ([4]; ATCC 13047): 7.5 µM (≈ 19.4 µg/mL)
strain susceptible to cloacaenodin ([4]; Enterobacter cloacae subsp. cloacae ATCC 13047): * Enterobacter cloacae subsp. cloacae
activity against Enterobacter cloacae ([4]; peptide at a concentration of 15 μM, listed as threaded cloacaenodin): has activity
antimicrobial activity (zones of inhibition) [4, 8]: zones of inhibition in the low micromolar range
MIC in M63 media ([5]; ATCC 33072): 1.9 µM (≈ 4.91 µg/mL)
strain susceptible to cloacaenodin ([5]; Enterobacter amnigenus ATCC 33072): * Enterobacter amnigenus
antimicrobial activity (zones of inhibition) [5, 8]: zones of inhibition in the low micromolar range
MIC in M63 media ([6]; DSM 17506): 1.9 µM (≈ 4.91 µg/mL)
antimicrobial activity (zones of inhibition) [6, 8]: zones of inhibition in the low micromolar range
MIC in M63 media ([7]; DSM 26271): 3.8 µM (≈ 9.82 µg/mL)
strain susceptible to cloacaenodin ([7]; Enterobacter mori DSM 26271): * Enterobacter mori
antimicrobial activity (zones of inhibition) [7, 8]: zones of inhibition in the low micromolar range
filamentation phenotype (Enterobacter cloacae): degree of filamentation; also recorded: filamentation phenotype
